Where “and” joins values, the source holds several entries; their conditions need not be identical. Identical values can stand only once.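 In this assay, cells in 96-well plates receive the compound at five concentrations for 48 hours. Endpoints are linearly interpolated between the surrounding concentrations. The concentration for 50% growth inhibition is given as GI50. At the TGI there is no net growth.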
Experiments:
Experiment in all cases: growth of human tumour cells (NCI), 48 h
[1] = system: T-47D breast
[2] = system: DU-145 prostate
[3] = system: HOP-62 NSCLC
[4] = system: COLO 205 colon
[5] = system: CCRF-CEM leukemia
[6] = system: BT-549 breast
[7] = system: SNB-19 CNS
[8] = system: MDA-MB-435

SMILES	GI50 [1] [µM]	TGI [1]	GI50 [2]	TGI [2]	GI50 [3]	TGI [3]	GI50 [4]	TGI [4]	GI50 [5] [µM]	TGI [5]	GI50 [6]	TGI [6]	GI50 [7]	TGI [7]	GI50 [8]	TGI [8]
O=C(Nc1ccc(-c2ccccc2)cc1)C1CCN(S(=O)(=O)c2ccccc2Cl)CC1	> 100	> 100 µM	27.9 µM	> 100 µM	18.8 µM	40.9 µM	> 100 µM	> 100 µM	74.2	> 100 µM	13.9 µM	56.3 µM	> 100 µM	> 100 µM	> 100 µM	> 100 µM
COc1ccc(OC)c2c(/C=C/c3ccc(N(C)C)cc3)ccnc12		> 10 µM		> 10 µM		> 10 µM		> 10 µM		9.28 µM		> 10 µM		> 10 µM		> 10 µM
C[C@]12CC[C@H](O)C[C@H]1CC[C@@H]1[C@@H]2CC[C@]2(C)[C@@H](C3=CC(=O)OC3)CC[C@]12O		0.858 µM	0.0325 µM	0.146 µM	0.0313 µM	0.169 µM		2.32 µM		44.4 µM		0.134 µM		2.2 µM		1.02 µM
COc1cc2c(c(OC)n1)[C@]1(O)[C@H](O)[C@H](CN(C)C)[C@@H](c3ccccc3)[C@]1(c1ccc(C#N)cc1)O2	< 0.01	3.81 µM and 2.33 µM	0.0191 µM and < 0.0136 µM	3.45 µM and 3.69 µM	< 0.0151 µM and 0.0102 µM	3.52 µM and 0.565 µM	0.0114 µM and < 0.0111 µM	0.0442 µM and 0.0572 µM	< 0.01	> 52.7 µM and 13.6 µM	0.0451 µM and 0.0737 µM	0.825 µM and 2.62 µM	0.0111 µM and 0.0104 µM	3.8 µM and 4.21 µM	0.0163 µM and 0.0143 µM	1.06 µM and 8.13 µM
CCc1ccccc1NC(=O)c1sc2nc3c(cc2c1N)C(=O)CCC3	0.533	> 79.8 µM	0.589 µM	> 100 µM	0.587 µM	> 68.5 µM	0.291 µM	1.06 µM	0.352	> 100 µM	27.4 µM	> 100 µM	0.801 µM	> 100 µM	0.0598 µM	0.336 µM
O=c1[nH]cnc2cccc(Cl)c12		> 100 µM		> 100 µM		> 100 µM		> 100 µM		> 100 µM		> 100 µM		> 100 µM		
O=C(/C=C/c1cc(CN2CCOCC2)c(O)c2ncccc12)c1cc(CN2CCOCC2)c(O)c2ncccc12	0.0574	2.48 µM	< 0.0219 µM	> 100 µM	0.0335 µM	> 39 µM	0.0842 µM	> 100 µM	0.05	> 100 µM	0.0287 µM	16.9 µM	0.0482 µM	> 100 µM	< 0.0211 µM	> 100 µM
NC(CS/C(Cl)=C/Cl)C(=O)O (centres undefined)	2.68	15.2 µM	16.5 µM	> 100 µM	4.64 µM	29.3 µM	26.6 µM	> 69.7 µM	20.3	> 100 µM	12.1 µM	> 64.1 µM	30.7 µM	> 100 µM	9.25 µM	31.5 µM
O=C(CSC(c1ccccc1)c1ccccc1)N/N=C/c1ccc(Cl)cc1Cl			32.9 µM	93.5 µM	42.3 µM	> 100 µM			31.5	> 100 µM	30 µM	75.8 µM			29.6 µM	79.2 µM
Cc1cc[c-]cc1.Fc1c[c-]c(-c2ccccn2)c(F)c1.[Pt+2].c1ccc(P(C[PH+](c2ccccc2)c2ccccc2)c2ccccc2)cc1	2.34	9.47 µM	2.99 µM	12.8 µM	2.84 µM	10.7 µM	1.84 µM	3.76 µM			2.62 µM	12.2 µM	2.81 µM	12.8 µM	2.18 µM	6.2 µM
Nc1nc(SN=Nc2ccc(S(N)(=O)=O)cc2)c2[nH]cnc2n1	0.536	> 100 µM	0.469 µM	> 94.8 µM	0.62 µM	> 100 µM	1.42 µM	3.6 µM	0.268	> 100 µM	1.15 µM	> 100 µM	> 78.6 µM	> 100 µM	0.39 µM	> 100 µM
CC(=O)/C=C/c1ccc(C#Cc2ccccc2)s1	11.4	28.4 µM	10.8 µM	24 µM	19.7 µM	33.8 µM	16.9 µM	31 µM	22.2	47.6 µM	13.5 µM	28 µM	12.7 µM	25.9 µM	13.8 µM	29.5 µM
O=C(Nc1ccc(-n2cc(-c3ccncc3)c(-c3ccc(Cl)c(O)c3)n2)cc1)Nc1ccc(Cl)c(C(F)(F)F)c1	2.39	6.54 µM	1.84 µM	3.85 µM	1.68 µM	3.18 µM	1.68 µM	3.7 µM	1.53	8.79 µM	1.2 µM	2.79 µM	1.72 µM	4.7 µM	1.32 µM	2.91 µM
COc1ccc2c(O)cc3c(c2c1)[C@H](CCl)CN3C(=O)c1cc2cc(NC(=O)CCN3CCOCC3)ccc2[se]1	< 0.001		< 0.001 µM	0.137 µM	< 0.001 µM	2.03 µM	< 0.001 µM	> 10 µM	< 0.001		0.00104 µM	0.00649 µM	< 0.001 µM	0.233 µM		
Oc1cn(-c2ccc(Cl)cc2)nc1-c1n[nH]c(=S)n1C1CCCCC1	6.62	> 100 µM	0.502 µM	> 33.9 µM	1.67 µM	> 100 µM	64.8 µM	> 100 µM	0.252	> 100 µM	9.51 µM	> 100 µM	0.416 µM	> 44.8 µM		
NC(N)=NCCCCCNc1noc(Cc2c[nH]c3cc(Br)ccc23)n1	6.04	32.3 µM	20.4 µM	> 100 µM	5.84 µM	28.4 µM	9.77 µM	28.2 µM	13.9	39.5 µM	3.35 µM	14.9 µM	3.62 µM	20.4 µM	19.3 µM	62.7 µM

Source: PubChem BioAssay (NCI)
